From patent US10072006B2 (MUTABILIS, priority 2015, dated 2018)

Tests used:
OXA-1 = target: T1, OXA-1 (Escherichia coli, UniProt P13661); experiment: β-lactamase inhibitory activity, determination of IC50 (nitrocefin hydrolysis); type: biochemical
T1 construct: made in house; host or cells: E. coli

OXA-48 = target: T2, OXA-48 (Klebsiella pneumoniae, UniProt Q6XEC0); experiment: as above; type: biochemical
T2 construct: made in house; host or cells: E. coli

AmpC (PAE) = AmpC (PAE) (Pseudomonas aeruginosa, UniProt P24735); experiment: biochemical
[1] = tested on: E. coli UFR52 (TEM-1, SHV-12, IMP-8); experiment: MIC of compounds and synergy with ceftazidime (broth microdilution); type: cell-based; conditions: strain UFR52 (E. coli); for MIC: Escherichia coli, 18 h, read-out: MIC compounds of the invention alone; for MIC, combination of CAZ and compounds of the invention: MIC of ceftazidime with compound fixed at 4 μg/mL
In short: (§1)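 Read-out is visual: the MIC is the lowest concentration at which no bacterial growth is seen. Plates held compounds spotted from DMSO solutions and were kept at 35° C in ambient air for 16-20 h.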

[2] = tested on: K. pneumoniae BAA-1898 (TEM-1, SHV-11, SHV-12, KPC-2); experiment: as above; type: cell-based; conditions: strain BAA-1898 (K. pneumoniae); for MIC: Klebsiella pneumoniae, BAA1898, read-out: MIC compounds of the invention alone; for MIC, combination of CAZ and compounds of the invention: MIC of ceftazidime with compound fixed at 4 μg/mL
In short: as §1

[3] = tested on: E. coli UFR61O (TEM-1, KPC-2); experiment: as above; type: cell-based; conditions: for MIC: Escherichia coli, strain UFR61O (E. coli), read-out: MIC compounds of the invention alone; for MIC, combination of CAZ and compounds of the invention: MIC of ceftazidime with compound fixed at 4 μg/mL, strain UFR610 (E. coli)
In short: as §1

[4] = tested on: K. pneumoniae 6299 (TEM-1, SHV-11, OXA-163); experiment: as above; type: cell-based; conditions: strain 6299 (K. pneumoniae); for MIC: Klebsiella pneumoniae, 18 h, read-out: MIC compounds of the invention alone; for MIC, combination of CAZ and compounds of the invention: MIC of ceftazidime with compound fixed at 4 μg/mL
In short: as §1

[5] = tested on: P. aeruginosa UFR48 (VIM-2); experiment: as above; type: cell-based; conditions: strain UFR48 (P. aeruginosa); for MIC: Pseudomonas aeruginosa, 18 h, read-out: MIC compounds of the invention alone
In short: as §1

[6] = tested on: E. coli UFR32 (TEM-1, VEB-1, OXA-10); experiment: as above; type: cell-based; conditions: strain UFR32 (E. coli); for MIC: Escherichia coli, 18 h, read-out: MIC compounds of the invention alone; for MIC, combination of CAZ and compounds of the invention: MIC of ceftazidime with compound fixed at 4 μg/mL
In short: as §1

[7] = tested on: C. murliniae 210102 (VIM-4); experiment: as above; type: cell-based; conditions: strain 210102 (C. murliniae); for MIC: 18 h, read-out: MIC compounds of the invention alone; for MIC, combination of CAZ and compounds of the invention: MIC of ceftazidime with compound fixed at 4 μg/mL
In short: as §1

[8] = tested on: E. coli UFR18 (CTX-M-15, OXA-204); experiment: as above; type: cell-based; conditions: strain UFR18 (E. coli); for MIC: Escherichia coli, 18 h, read-out: MIC compounds of the invention alone; for MIC, combination of CAZ and compounds of the invention: MIC of ceftazidime with compound fixed at 4 μg/mL
In short: as §1

[9] = tested on: P. aeruginosa UFR47 (VIM-1); experiment: as above; type: cell-based; conditions: strain UFR47 (P. aeruginosa); for MIC: Pseudomonas aeruginosa, 18 h, read-out: MIC compounds of the invention alone
In short: as §1

[10] = tested on: P. aeruginosa UFR35 (OXA-23); experiment: as above; type: cell-based; conditions: strain UFR35 (P. aeruginosa); for MIC: Pseudomonas aeruginosa, 18 h, read-out: MIC compounds of the invention alone
In short: as §1

[11] = tested on: E. coli UFR74 (SHV-1, DHA-1); experiment: as above; type: cell-based; conditions: strain UFR74 (E. coli); for MIC: Escherichia coli, 18 h, read-out: MIC compounds of the invention alone; for MIC, combination of CAZ and compounds of the invention: MIC of ceftazidime with compound fixed at 4 μg/mL
In short: as §1

[12] = tested on: K. pneumoniae UFR24 (TEM-1, SHV-2, SHV-11, OXA-1, OXA-48, OXA-47); experiment: as above; type: cell-based; conditions: strain UFR24 (K. pneumoniae); for MIC: Klebsiella pneumoniae, 18 h, read-out: MIC compounds of the invention alone; for MIC, combination of CAZ and compounds of the invention: MIC of ceftazidime with compound fixed at 4 μg/mL
In short: as §1

E. coli RGN238 (OXA-1) = experiment: as above; type: cell-based; conditions: strain RGN238 (E. coli); for MIC: Escherichia coli, 18 h, read-out: MIC compounds of the invention alone; for MIC, combination of CAZ and compounds of the invention: MIC of ceftazidime with compound fixed at 4 μg/mL
In short: as §1

[13] = tested on: P. aeruginosa CIP105250 (OXA-15); experiment: as above; type: cell-based; conditions: strain CIP105250 (P. aeruginosa); for MIC, combination of CAZ and compounds of the invention: MIC of ceftazidime with compound fixed at 4 μg/mL; for MIC: Pseudomonas aeruginosa, 18 h, read-out: MIC compounds of the invention alone
In short: as §1

[14] = tested on: E. cloacae UFR70 (TEM-1, CTX-M-15, CMY-2, OXA-1, Porin loss); experiment: as above; type: cell-based; conditions: for MIC: Enterobacter cloacae, 18 h, read-out: MIC compounds of the invention alone; for MIC, combination of CAZ and compounds of the invention: MIC of ceftazidime with compound fixed at 4 μg/mL, strain UFR70 (E. cloacae)
In short: as §1

[15] = tested on: P. aeruginosa UFR59 (IMP-29); experiment: as above; type: cell-based; conditions: strain UFR59 (P. aeruginosa); for MIC: Pseudomonas aeruginosa, 18 h, read-out: MIC compounds of the invention alone
In short: as §1

[16] = tested on: P. aeruginosa UFR93 (Derepressed ampC, OprD-, MexAB+, MexXY+); experiment: as above; type: cell-based; conditions: for MIC: Pseudomonas aeruginosa, 18 h, read-out: MIC compounds of the invention alone
In short: as §1

[17] = tested on: E. cloacae P99 (Derepressed ampC); experiment: as above; type: cell-based; conditions: strain P99 (E. cloacae); for MIC: Enterobacter cloacae, 18 h, read-out: MIC compounds of the invention alone; for MIC, combination of CAZ and compounds of the invention: MIC of ceftazidime with compound fixed at 4 μg/mL
In short: as §1

[18] = tested on: P. aeruginosa CIP107051 (TEM-24); experiment: as above; type: cell-based; conditions: strain CIP107051 (P. aeruginosa); for MIC, combination of CAZ and compounds of the invention: MIC of ceftazidime with compound fixed at 4 μg/mL; for MIC: Pseudomonas aeruginosa, 18 h, read-out: MIC compounds of the invention alone
In short: as §1

[19] = tested on: E. coli 131119 (TEM-1, OXA-48); experiment: as above; type: cell-based; conditions: strain 131119 (E. coli); for MIC: Escherichia coli, 18 h, read-out: MIC compounds of the invention alone; for MIC, combination of CAZ and compounds of the invention: MIC of ceftazidime with compound fixed at 4 μg/mL
In short: as §1

[20] = MIC of ceftazidime with compound fixed at 4 μg/mL

T2 sequence (Q6XEC0 23-265 limits assumed): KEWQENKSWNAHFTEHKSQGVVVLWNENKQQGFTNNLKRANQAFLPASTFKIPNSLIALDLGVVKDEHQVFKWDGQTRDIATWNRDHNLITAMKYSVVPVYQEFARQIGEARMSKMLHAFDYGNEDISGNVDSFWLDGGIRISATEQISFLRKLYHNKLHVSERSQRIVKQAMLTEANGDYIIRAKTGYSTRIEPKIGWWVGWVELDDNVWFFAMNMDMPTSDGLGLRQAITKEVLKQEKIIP
Chain of AmpC (PAE) (P24735 27-397): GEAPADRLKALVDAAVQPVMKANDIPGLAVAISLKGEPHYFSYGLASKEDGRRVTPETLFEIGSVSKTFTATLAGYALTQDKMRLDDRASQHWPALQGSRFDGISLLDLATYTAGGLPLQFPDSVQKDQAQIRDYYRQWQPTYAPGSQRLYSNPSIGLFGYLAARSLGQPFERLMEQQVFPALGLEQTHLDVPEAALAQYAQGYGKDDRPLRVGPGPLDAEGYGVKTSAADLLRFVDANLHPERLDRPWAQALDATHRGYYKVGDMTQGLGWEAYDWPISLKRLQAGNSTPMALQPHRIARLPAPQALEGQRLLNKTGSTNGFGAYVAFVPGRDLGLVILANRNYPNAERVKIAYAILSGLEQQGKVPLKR
T1 sequence (P13661 26-276): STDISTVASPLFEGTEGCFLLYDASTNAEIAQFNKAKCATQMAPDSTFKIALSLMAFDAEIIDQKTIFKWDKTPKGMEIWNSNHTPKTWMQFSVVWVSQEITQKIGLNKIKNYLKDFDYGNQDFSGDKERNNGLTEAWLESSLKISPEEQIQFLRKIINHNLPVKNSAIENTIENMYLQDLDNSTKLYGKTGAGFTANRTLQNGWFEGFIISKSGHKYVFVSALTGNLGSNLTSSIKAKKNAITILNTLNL

## NC[C@@H]1C(c2nccs2)=C[C@@H]2CN1C(=O)N2OS(=O)(=O)[O-].O=C(O)C(F)(F)F.[Na+] [Example 2, Sodium and 2,2,2-trifluoroacetate [(2S,5R)-2-(azaniumylmethyl)-7-oxo-3-thiazol-2-yl-1,6-diazabicyclo[3.2.1]oct-3-en-6-yl] sulfate]
OXA-1
  IC50: 6.1 nM
OXA-48
  IC50: 3.5 nM
AmpC (PAE)
  IC50: 110 nM
[1]
  MIC: 4 µg/mL
  MIC, combination of CAZ and compounds of the invention: <0.25 µg/mL
[2]
  MIC: 16 µg/mL
  MIC, combination of CAZ and compounds of the invention: ≤0.125 µg/mL
[3]
  MIC: 0.031 µg/mL
  MIC, combination of CAZ and compounds of the invention: <0.25 µg/mL
[4]
  MIC: > 32 µg/mL
  MIC, combination of CAZ and compounds of the invention: 4 µg/mL
[5]; [20]
  MIC, combination of CAZ and compounds of the invention: <0.25 µg/mL
[5]
  MIC: 2 µg/mL
[6]
  MIC: ≤ 0.016 µg/mL
  MIC, combination of CAZ and compounds of the invention: <0.25 µg/mL
[7]
  MIC: 4 µg/mL
  MIC, combination of CAZ and compounds of the invention: ≤0.125 µg/mL
[8]
  MIC: ≤ 0.016 µg/mL
  MIC, combination of CAZ and compounds of the invention: <0.25 µg/mL
[9]; [20]
  MIC, combination of CAZ and compounds of the invention: <0.25 µg/mL
[9]
  MIC: 2 µg/mL
[10]; [20]
  MIC, combination of CAZ and compounds of the invention: <0.25 µg/mL
[10]
  MIC: 2 µg/mL
[11]
  MIC: 16 µg/mL
  MIC, combination of CAZ and compounds of the invention: ≤0.125 µg/mL
[12]
  MIC: > 32 µg/mL
  MIC, combination of CAZ and compounds of the invention: 0.25 µg/mL
E. coli RGN238 (OXA-1)
  MIC: 8 µg/mL
  MIC, combination of CAZ and compounds of the invention: ≤0.125 µg/mL
[13]
  MIC, combination of CAZ and compounds of the invention: ≤0.125 µg/mL
  MIC: 8 µg/mL
[14]
  MIC: 4 µg/mL
  MIC, combination of CAZ and compounds of the invention: <0.25 µg/mL
[15]; [20]
  MIC, combination of CAZ and compounds of the invention: <0.25 µg/mL
[15]
  MIC: 8 µg/mL
[16]; MIC of ceftazidime with compound fixed at 4 μg/mL, strain UFR93 (P. aeruginosa)
  MIC, combination of CAZ and compounds of the invention: <0.25 µg/mL
[16]
  MIC: 4 µg/mL
[17]
  MIC: ≤ 0.016 µg/mL
  MIC, combination of CAZ and compounds of the invention: <0.25 µg/mL
[18]
  MIC, combination of CAZ and compounds of the invention: <0.25 µg/mL
  MIC: 2 µg/mL
[19]
  MIC: ≤ 0.016 µg/mL
  MIC, combination of CAZ and compounds of the invention: <0.25 µg/mL

## NC[C@@H]1C(c2ncco2)=C[C@@H]2CN1C(=O)N2OS(=O)(=O)[O-].O=C(O)C(F)(F)F.[Na+] [Example 5, Sodium and 2,2,2-trifluoroacetate [(2S,5R)-2-(azaniumylmethyl)-7-oxo-3-oxazol-2-yl-1,6-diazabicyclo[3.2.1]oct-3-en-6-yl] sulfate]
OXA-1
  IC50: 370 nM
OXA-48
  IC50: 180 nM
AmpC (PAE)
  IC50: 12000 nM
[1]
  MIC: 4 µg/mL
  MIC, combination of CAZ and compounds of the invention: <0.25 µg/mL
[2]
  MIC: 16 µg/mL
  MIC, combination of CAZ and compounds of the invention: ≤0.125 µg/mL
[3]
  MIC: 0.5 µg/mL
  MIC, combination of CAZ and compounds of the invention: <0.25 µg/mL
[4]
  MIC: > 32 µg/mL
  MIC, combination of CAZ and compounds of the invention: 8 µg/mL
[5]
  MIC: 2 µg/mL
[6]
  MIC: 0.063 µg/mL
  MIC, combination of CAZ and compounds of the invention: <0.25 µg/mL
[7]
  MIC: 4 µg/mL
  MIC, combination of CAZ and compounds of the invention: <0.25 µg/mL
[8]
  MIC: ≤ 0.016 µg/mL
  MIC, combination of CAZ and compounds of the invention: <0.25 µg/mL
[9]
  MIC: 1 µg/mL
[10]
  MIC: 0.25 µg/mL
[11]
  MIC: 16 µg/mL
  MIC, combination of CAZ and compounds of the invention: <0.25 µg/mL
[12]
  MIC: > 32 µg/mL
  MIC, combination of CAZ and compounds of the invention: <0.25 µg/mL
E. coli RGN238 (OXA-1)
  MIC: 16 µg/mL
  MIC, combination of CAZ and compounds of the invention: <0.25 µg/mL
[13]
  MIC, combination of CAZ and compounds of the invention: <0.25 µg/mL
  MIC: 4 µg/mL
[14]
  MIC: 8 µg/mL
  MIC, combination of CAZ and compounds of the invention: <0.25 µg/mL
[15]
  MIC: 2 µg/mL
[16]
  MIC: 4 µg/mL
[17]
  MIC: ≤ 0.016 µg/mL
  MIC, combination of CAZ and compounds of the invention: <0.25 µg/mL
[18]
  MIC, combination of CAZ and compounds of the invention: <0.25 µg/mL
  MIC: 2 µg/mL
[19]
  MIC: 0.063 µg/mL
  MIC, combination of CAZ and compounds of the invention: <0.25 µg/mL
